# Values of other authors in US20200317616A1, “Crystalline Form of Betrixaban Maleate” (Apotex Inc., priority 2019, published 2020).
# Where a name gives a salt, the structure may show the parent alone.
# Legend:
# [1] = anhydrous form, CDER review NDA 208383
# [2] = anhydrous form, CDER review NDA 208383; remark: listed apart in the source
# [3] = labelling of BEVYXXA
solubility [1],permeability [2],oral bioavailability [3],Compound
high,low,,COc1ccc(NC(=O)c2ccc(C(=N)N(C)C)cc2)c(C(=O)Nc2ccc(Cl)cn2)c1 [Betrixaban maleate]
,,34%,"COc1ccc(NC(=O)c2ccc(C(=N)N(C)C)cc2)c(C(=O)Nc2ccc(Cl)cn2)c1 [Betrixaban, N-(5-chloropyridin-2-yl)-2-[4-(N,N-dimethylcarbamimidoyl)-benzoylamino]-5-methoxybenzamide]"
